Measured values from patent publication US20260041774A1 (RepoCeuticals A/S, priority 2017, published 2026).
Read-outs that look alike come from different tables or passages of the source.

Legend:
rat = conditions: oral; cited from earlier work
[1] = tested on: oxidative damage in certain model systems; conditions: certain model systems (Oxenkrug 2005); cited from earlier work
[2] = Solubility of melatonin in aqueous solubilizer mixtures (overnight end-over-end rotation, filtration, HPLC); type: physicochemical; conditions: 20% (w/w) aqueous glycofurol, 25 °C, aqueous with cosolvent or surfactant or cyclodextrin, thermodynamic from solid
Description: Peaks were detected by UV absorption at 277 μm wavelength. […] To study the effect of adding DMSO to this medium, a medium consisting of 20% (w/w) glycofurol and 40% (w/w) DMSO in water was also prepared.

[3] = Procedure: The determination of what constitutes initial amount and final amount shall be made using the same experimental techniques. In the experiments presented below, initial and final amounts of degradation products were determined using HPLC as an exemplary measurement technique.
High pressure liquid chromatography (HPLC) elution profiles obtained from a 100×4.6 mm Phenomenex Kinetex column of XB-C18 silica (5 μm particle size) eluted with a linear gradient of solvent B (acetonitrile containing 0.1% v/v acetic acid) 10% to 50% in solvent A (water containing 0.1% v/v acetic acid) from 0.8 to 7.8 min, returning to 10% B at 8.8 min. Peaks were detected by UV absorption at […] wavelength. Overloading sample sizes were used to facilitate the detection of small amounts of breakdown products. […] (FIG. 1A) or 25° C. (FIG. 1B).
HPLC elution profiles were obtained as described for FIG. 1. […] (FIG. 2A) or 25° C. (FIG. 2B).
HPLC elution profiles were obtained as described for FIG. 1. […] (FIG. 3A) or 25° C. (FIG. 3B).

[4] = cited from earlier work; for solubility of melatonin in DMSO: room temperature (20 or 25° C.)
[5] = melatonin 10 mg/mL in 20% (w/w) aqueous glycofurol, 45 days at 25° C.
[6] = melatonin 10 mg/mL in 20% (w/w) glycofurol, 40% (w/w) DMSO in water, 45 days at 25° C.

SMILES: CCO [ethanol]
- LD50 (rat): 7060 mg/kg

SMILES: CC(=O)NCCc1c[nH]c2ccc(O)cc12 [N-acetylserotonin]
- protective effect against oxidative damage, times as strong as that of melatonin [1]: 5 to 20 times

SMILES: C[S+](C)[O-] [DMSO, dimethyl sulfoxide]
- LD50 (rat): 14500 mg/kg

SMILES: COc1ccc2[nH]cc(CCNC(C)=O)c2c1 [melatonin, N-acetyl-5-methoxytryptamine]
- solubility [2]: > 10 mg/mL
- melatonin breakdown ([3]; 20% (w/w) glycofurol, 40% (w/w) DMSO in water, 45 days at 25° C.): no evidence of the melatonin breakdown
- melatonin breakdown ([3]; 50% (w/w) DMSO, 45 days at 25° C.): no evidence of the melatonin breakdown
- degradation peaks (8.1, 8.4 and 8.6 min) together, share of the recovered UV-absorbent material ([3]; 45 days, 10 mg/mL): 0.36%
- melatonin peak at 6.0 min ([3]; melatonin 10 mg/mL in 20% (w/w) aqueous glycofurol, 45 days at 5° C.): 5871 absorption units
- additional peak at 8.4 min not seen in the 5° C. sample [3, 5]: 8.314 absorption units
- additional peak at 8.6 min not seen in the 5° C. sample [3, 5]: 5 absorption units
- additional peak at […] not seen in the 5° C. sample [3, 5]: 7.973 absorption units
- melatonin peak at 6.0 min [3, 5]: 5831 absorption units
- melatonin peak at 6.0 min ([3]; melatonin 10 mg/mL in 20% (w/w) glycofurol, 40% (w/w) DMSO in water, 45 days at 5° C.): 6831 absorption units
- additional peaks of UV-absorbent material [3, 6]: no additional peaks
- melatonin peak at 6.0 min [3, 6]: 6851 absorption units
- melatonin peak at 6.0 min ([3]; melatonin 10 mg/mL in 50% (w/w) aqueous DMSO, 45 days at 5° C.): 8771 absorption units
- additional peaks ([3]; melatonin 10 mg/mL in 50% (w/w) aqueous DMSO, 45 days at 5° C. or 25° C.): No additional peaks
- melatonin peak at 6.0 min ([3]; melatonin 10 mg/mL in 50% (w/w) aqueous DMSO, 45 days at 25° C.): 8771 absorption units
- decline in the melatonin concentrations ([3]; solutions 1), 2) and 3), sealed tubes, 25° C., HPLC on days 0, 10, 17, 31 and 45): no significant decline
- solubility of melatonin in ethanol ([4]; 20° C., EC SCCS/1315/10, 2010): 182 mg/mL
- solubility of melatonin in ethanol/water (40/60 v/v) mixture ([4]; 20° C.): 64 mg/mL
- solubility of melatonin in water ([4]; 20° C.): approximately 2 g/L
- solubility of melatonin in water ([4]; 50° C.): ~5 mg/mL
- solubility of melatonin in DMSO ([4]; source MedChem): ≤ 200 mM
- solubility of melatonin in DMSO ([4]; source abcam): ≤ 100 mM
- solubility of melatonin in DMSO ([4]; source tocris): ≤ 50 mM
